Data published in US20250115591A1, “NOVEL SULFONAMIDE CARBOXAMIDE COMPOUNDS” (INFLAZOME LIMITED, priority 2017, published 2025).
Where a name gives a salt, the structure may show the parent alone.

Experiments:
NLRP3 [1] = molecular target: T1, NLRP3 (Homo sapiens (Human), UniProt Q96P20); assay: Human whole blood IL1β release assay (LPS + nigericin); assay type: cell-based; settings: human whole blood, 1 μg/ml LPS, nigericin, IL-1β release; read-out: HWB IC50
Method: For systemic delivery, the ability to inhibit NLRP3 when the compounds are present within the bloodstream is of great importance. For this reason, the NLRP3 inhibitory activity of a number of compounds in human whole blood was investigated in accordance with the following protocol.
Human whole blood in Li-heparin tubes was obtained from healthy donors from a volunteer donor panel. • 1. Plate out 80 μl of whole blood containing 1 μg/ml of LPS in 96-well, clear bottom cell culture plate (Corning #3585) • 2. Add 10 μl compound (8 points half-log dilution with 10 μM top dose) or vehicle (DMSO 0.1% FAC) to the appropriate wells • 3. Incubate for 3 hrs at 37° C., 5% CO2 • 4. Add 10 μl nigericin (Sigma #N7143) ([…]) to all wells • 5. Incubate for 1 hr at 37° C., 5% CO2 • 6. At the end of the incubation period, spin plates at 30×g for 5 mins to pellet cells and remove 20 μl of supernatant and add to 96-well v-bottom plates for IL-1β analysis (note: these plates containing the supernatants can be stored at −80° C. to be analysed at a later date) • 7. IL-1β was measured according to the manufacturer protocol (Perkin Elmer-AlphaLisa IL-Kit A[220F-5000) • 8. IC50 data is fitted to a non-linear regression equation (log inhibitor vs response-variable slope 4-parameters)

NLRP3 [2] = molecular target: T1, NLRP3; assay: THP-1 cells pyroptosis assay (LPS + nigericin, resazurin read-out); assay type: cell-based; settings: 1 μg/ml LPS, 5 μM nigericin
Method in brief: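 LPS-primed (1 μg/ml) human THP-1 cells in serum-free RPMI were exposed to compound (8-point half-log series, top dose as printed "10M") for 3 h at 37 °C, then to nigericin 5 μM for 1 h. Remaining viability was read by resazurin (100 μM, 1-2 h) fluorescence, and IC50 came from 4-parameter variable-slope regression.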

T1 sequence (Q96P20 whole entry): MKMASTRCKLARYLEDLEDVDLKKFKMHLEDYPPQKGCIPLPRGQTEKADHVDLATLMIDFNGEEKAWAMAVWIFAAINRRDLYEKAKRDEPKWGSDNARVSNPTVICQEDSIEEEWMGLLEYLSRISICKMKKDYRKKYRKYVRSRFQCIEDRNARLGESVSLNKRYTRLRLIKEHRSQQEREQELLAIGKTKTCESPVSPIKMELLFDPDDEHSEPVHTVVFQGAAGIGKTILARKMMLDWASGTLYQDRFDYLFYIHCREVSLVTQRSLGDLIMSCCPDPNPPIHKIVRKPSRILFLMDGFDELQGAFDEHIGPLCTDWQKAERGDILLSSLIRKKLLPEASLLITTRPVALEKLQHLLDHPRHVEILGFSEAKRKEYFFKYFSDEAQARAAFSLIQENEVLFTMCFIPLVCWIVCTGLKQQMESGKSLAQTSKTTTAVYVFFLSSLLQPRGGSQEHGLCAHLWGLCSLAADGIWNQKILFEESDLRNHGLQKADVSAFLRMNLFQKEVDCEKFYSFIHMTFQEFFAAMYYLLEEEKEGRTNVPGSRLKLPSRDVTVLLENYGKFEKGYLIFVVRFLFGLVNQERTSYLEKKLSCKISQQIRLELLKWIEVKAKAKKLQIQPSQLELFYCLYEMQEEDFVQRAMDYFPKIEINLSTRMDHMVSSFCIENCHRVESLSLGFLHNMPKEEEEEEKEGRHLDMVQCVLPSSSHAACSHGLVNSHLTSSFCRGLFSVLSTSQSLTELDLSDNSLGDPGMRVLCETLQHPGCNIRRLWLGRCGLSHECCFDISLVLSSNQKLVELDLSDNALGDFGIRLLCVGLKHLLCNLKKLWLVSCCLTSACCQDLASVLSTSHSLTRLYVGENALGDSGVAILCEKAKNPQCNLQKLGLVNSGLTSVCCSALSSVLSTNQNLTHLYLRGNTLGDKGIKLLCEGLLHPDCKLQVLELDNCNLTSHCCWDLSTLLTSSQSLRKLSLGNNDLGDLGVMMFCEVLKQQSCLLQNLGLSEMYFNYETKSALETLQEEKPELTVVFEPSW

| SMILES | IC50 (NLRP3 [1]) [nM] | IC50 (NLRP3 [2]) [nM] |
| --- | --- | --- |
| CCN1CC(N2CCC(S(=O)(=O)NC(=O)Nc3c4c(cc5c3CCC5)CCC4)CC2)C1 [Example 24, 1-(1-Ethylazetidin-3-yl)-N-((1,2,3,5,6,7-hexahydro-s-indacen-4-yl)carbamoyl)piperidine-4-sulfonamide, potassium salt] | < 1000 | < 1000 |
| CCC(=O)N1CCCC(S(=O)(=O)NC(=O)Nc2c3c(cc4c2CCC4)CCC3)C1 (centres unmarked) [Example 32, N-((1,2,3,5,6,7-Hexahydro-s-indacen-4-yl)carbamoyl)-1-propionylpiperidine-3-sulfonamide, potassium salt] | 1000 to 10000 | 1000 to 10000 |
| O=C(Nc1c2c(cc3c1CCC3)CCC2)NS(=O)(=O)C1CCCN(CCF)C1 (centres unmarked) [Example 34, 1-(2-Fluoroethyl)-N-((1,2,3,5,6,7-hexahydro-s-indacen-4-yl)carbamoyl)piperidine-3-sulfonamide, potassium salt] | 1000 to 10000 | < 1000 |
| O=C(Nc1c2c(cc3c1CCC3)CCC2)NS(=O)(=O)C1CNc2ccccc2C1 (centres unmarked) [Example 35, N-((1,2,3,5,6,7-Hexahydro-s-indacen-4-yl)carbamoyl)-1,2,3,4-tetrahydroquinoline-3-sulfonamide, potassium salt] | > 10000 | < 1000 |
| O=C(Nc1c2c(cc3c1CCC3)CCC2)NS(=O)(=O)C1CCN(C2CC2)C1 (centres unmarked) [Example 39, 1-Cyclopropyl-N-((1,2,3,5,6,7-hexahydro-s-indacen-4-yl)carbamoyl)pyrrolidine-3-sulfonamide, potassium salt] | 1000 to 10000 | < 1000 |
| CN1CC(S(=O)(=O)NC(=O)Nc2c3c(cc4c2CCC4)CCC3)C1 [Example 49, N-((1,2,3,5,6,7-Hexahydro-s-indacen-4-yl)carbamoyl)-1-methylazetidine-3-sulfonamide, potassium salt] | < 1000 | < 1000 |
| CCN1CC(S(=O)(=O)NC(=O)Nc2c3c(cc4c2CCC4)CCC3)C1 [Example 53, 1-Ethyl-N-((1,2,3,5,6,7-hexahydro-s-indacen-4-yl)carbamoyl) azetidine-3-sulfonamide, potassium salt] | < 1000 | < 1000 |
| CCC(CC)N1CC(S(=O)(=O)NC(=O)Nc2c3c(cc4c2CCC4)CCC3)C1 [Example 65, N-((1,2,3,5,6,7-Hexahydro-s-indacen-4-yl)carbamoyl)-1-(pentan-3-yl)azetidine-3-sulfonamide, potassium salt] | < 1000 | < 1000 |
| O=C(Nc1c2c(cc3c1CCC3)CCC2)NS(=O)(=O)C1CN(C(=O)OCc2ccccc2)C1 [Example 71, Benzyl 3-(N-((1,2,3,5,6,7-hexahydro-s-indacen-4-yl)carbamoyl)sulfamoyl)azetidine-1-carboxylate, potassium salt] | > 10000 | < 1000 |
| O=C(Nc1c2c(cc3c1CCC3)CCC2)NS(=O)(=O)C1CN(C2CCOCC2)C1 [Example 75, N-((1,2,3,5,6,7-Hexahydro-s-indacen-4-yl)carbamoyl)-1-(tetrahydro-2H-pyran-4-yl)azetidine-3-sulfonamide, potassium salt] | < 1000 | < 1000 |
| O=C(Nc1c2c(cc3c1CCC3)CCC2)NS(=O)(=O)C1CN(Cc2cccnc2)C1 [Example 90, N-((1,2,3,5,6,7-Hexahydro-s-indacen-4-yl)carbamoyl)-1-(pyridin-3-ylmethyl)azetidine-3-sulfonamide, potassium salt] | < 1000 | < 1000 |
| O=C(Nc1c2c(cc3c1CCC3)CCC2)NS(=O)(=O)C1CN(CC(F)(F)F)C1 [Example 96, N-((1,2,3,5,6,7-Hexahydro-s-indacen-4-yl)carbamoyl)-1-(2,2,2-trifluoroethyl)azetidine-3-sulfonamide, potassium salt] | 1000 to 10000 | < 1000 |
| CC(C)CN1CC(S(=O)(=O)NC(=O)Nc2c3c(cc4c2CCC4)CCC3)C1 [Example 97, N-((1,2,3,5,6,7-Hexahydro-s-indacen-4-yl)carbamoyl)-1-isobutylazetidine-3-sulfonamide, potassium salt] | < 1000 | < 1000 |
| O=C(Nc1c2c(cc3c1CCC3)CCC2)NS(=O)(=O)C1CN(CC2COC2)C1 [Example 101, N-((1,2,3,5,6,7-Hexahydro-s-indacen-4-yl)carbamoyl)-1-(oxetan-3-ylmethyl)azetidine-3-sulfonamide, potassium salt] | < 1000 | < 1000 |
| O=C(Nc1c2c(cc3c1CCC3)CCC2)NS(=O)(=O)C1CN(Cc2ccncc2)C1 [Example 103, N-((1,2,3,5,6,7-Hexahydro-s-indacen-4-yl)carbamoyl)-1-(pyridin-4-ylmethyl)azetidine-3-sulfonamide, potassium salt] | 1000 to 10000 | < 1000 |
| O=C(Nc1c2c(cc3c1CCC3)CCC2)NS(=O)(=O)C1CN(Cc2cccnc2Br)C1 [Example 105, 1-((2-Bromopyridin-3-yl)methyl)-N-((1,2,3,5,6,7-hexahydro-s-indacen-4-yl)carbamoyl)azetidine-3-sulfonamide, potassium salt] | > 10000 | < 1000 |
| O=C(Nc1c2c(cc3c1CCC3)CCC2)NS(=O)(=O)C1CN(CCF)C1 [Example 108, 1-(2-Fluoroethyl)-N-((1,2,3,5,6,7-hexahydro-s-indacen-4-yl)carbamoyl)azetidine-3-sulfonamide, potassium salt] | < 1000 | < 1000 |
| O=C(Nc1c2c(cc3c1CCC3)CCC2)NS(=O)(=O)C1CN(C2CCOC2)C1 (centres unmarked) [Example 121, N-((1,2,3,5,6,7-Hexahydro-s-indacen-4-yl)carbamoyl)-1-(tetrahydrofuran-3-yl)azetidine-3-sulfonamide, potassium salt] | < 1000 | < 1000 |
| CCC(C)N1CC(S(=O)(=O)NC(=O)Nc2c3c(cc4c2CCC4)CCC3)C1 (centres unmarked) [Example 122, 1-(sec-Butyl)-N-((1,2,3,5,6,7-hexahydro-s-indacen-4-yl)carbamoyl)azetidine-3-sulfonamide, potassium salt] | < 1000 | < 1000 |
| CC1(C)CCC1N1CC(S(=O)(=O)NC(=O)Nc2c3c(cc4c2CCC4)CCC3)C1 (centres unmarked) [Example 124, 1-(2,2-Dimethylcyclobutyl)-N-((1,2,3,5,6,7-hexahydro-s-indacen-4-yl)carbamoyl)azetidine-3-sulfonamide, potassium salt] | 1000 to 10000 | < 1000 |
| O=C(Nc1c2c(cc3c1CCC3)CCC2)NS(=O)(=O)C1CN(CC2CCC2)C1 [Example 126, 1-(Cyclobutylmethyl)-N-((1,2,3,5,6,7-hexahydro-s-indacen-4-yl)carbamoyl)azetidine-3-sulfonamide, potassium salt] | 1000 to 10000 | 1000 to 10000 |
| CC(CO)N1CC(S(=O)(=O)NC(=O)Nc2c3c(cc4c2CCC4)CCC3)C1 (centres unmarked) [Example 130, N-((1,2,3,5,6,7-Hexahydro-s-indacen-4-yl)carbamoyl)-1-(1-hydroxypropan-2-yl)azetidine-3-sulfonamide, potassium salt] | < 1000 | < 1000 |
| CC(C(F)F)N1CC(S(=O)(=O)NC(=O)Nc2c3c(cc4c2CCC4)CCC3)C1 (centres unmarked) [Example 131, 1-(1,1-Difluoropropan-2-yl)-N-((1,2,3,5,6,7-hexahydro-s-indacen-4-yl)carbamoyl)azetidine-3-sulfonamide, potassium salt] | 1000 to 10000 | < 1000 |
| C#CCN1CC(S(=O)(=O)NC(=O)Nc2c3c(cc4c2CCC4)CCC3)C1 [Example 133, N-((1,2,3,5,6,7-Hexahydro-s-indacen-4-yl)carbamoyl)-1-(prop-2-yn-1-yl)azetidine-3-sulfonamide, potassium salt] | < 1000 | < 1000 |
| O=C(Nc1c2c(cc3c1CCC3)CCC2)NS(=O)(=O)C1CN(CCCO)C1 [Example 134, N-((1,2,3,5,6,7-Hexahydro-s-indacen-4-yl)carbamoyl)-1-(3-hydroxypropyl)azetidine-3-sulfonamide, potassium salt] | 1000 to 10000 | < 1000 |
| CC(C)(C)CN1CC(S(=O)(=O)NC(=O)Nc2c3c(cc4c2CCC4)CCC3)C1 [Example 135, N-((1,2,3,5,6,7-Hexahydro-s-indacen-4-yl)carbamoyl)-1-neopentylazetidine-3-sulfonamide, potassium salt] | 1000 to 10000 | < 1000 |
| CC(O)CN1CC(S(=O)(=O)NC(=O)Nc2c3c(cc4c2CCC4)CCC3)C1 (centres unmarked) [Example 137, N-((1,2,3,5,6,7-Hexahydro-s-indacen-4-yl)carbamoyl)-1-(2-hydroxypropyl)azetidine-3-sulfonamide, potassium salt] | 1000 to 10000 | < 1000 |
| O=C(Nc1c2c(cc3c1CCC3)CCC2)NS(=O)(=O)C1CN(CCCCO)C1 [Example 138, N-((1,2,3,5,6,7-Hexahydro-s-indacen-4-yl)carbamoyl)-1-(4-hydroxybutyl)azetidine-3-sulfonamide, potassium salt] | < 1000 | < 1000 |
